Results published in patent publication US20260234165A1, “MACROCYCLIC COMPOUNDS, PREPARATION METHOD THEREFOR, AND USE THEREOF” (GENFLEET THERAPEUTICS (SHANGHAI) INC., priority 2004, published 2026).
Where a name gives a salt, the structure may show the parent alone. Read-outs that look alike come from different tables or passages of the source.

Legend:
Type in all cases: cell-based, human
[1] = system: p-ERK in NCI-H441 cells (KRAS G12V mutation); assay: Cell p-ERK assay (HTRF) in NCI-H441 cells
Procedure, shortened: (§1)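 AsPC-1 (10000/well) or NCI-H441 (20000/well) cells were seeded overnight, then treated 3 h at 37° C. with 3.16-fold compound dilutions (0.1% DMSO final). Lysates were probed 4 h for phospho-ERK T202/Y204 by HTRF; inhibition versus DMSO and blank wells gave IC50 from four-parameter fits.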

NCI-H441 cells = assay: 3D cell proliferation assay (CellTiter Glo-3D), NCI-H441; conditions: medium with 2% FBS, read-out: H441 AP IC50
Procedure, shortened: (§2)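 Proliferation of the KRAS-mutant lines NCI-H441 and AsPC-1 is measured over 5 days of compound treatment in medium with 2% FBS. Inhibition is computed from luminescence relative to DMSO and cell-free controls, and IC50 comes from a four-parameter curve.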

[2] = system: AsPC-1 cells (KRAS G12D mutation); assay: 3D cell proliferation assay (CellTiter Glo-3D), AsPC-1; conditions: medium with 2% FBS, read-out: AsPC-1 AP IC50
Procedure, shortened: as §2

[3] = system: p-ERK in AsPC-1 cells (KRAS G12D mutation); assay: Cell p-ERK assay (HTRF) in AsPC-1 cells
Procedure, shortened: as §1

[4] = Homo sapiens, NCI-H441, 3 h, read-out: H441 p-ERK IC50(nM)
[5] = Homo sapiens, 3D cell proliferation (CellTiter Glo-3D)
[6] = Homo sapiens, ASPC1, 3D cell proliferation (CellTiter Glo-3D)
[7] = Homo sapiens, ASPC1, 3 h, read-out: AsPC-1 p-ERK IC50(nM)
[8] = Homo sapiens, NCI-H441, 3 h, NCI-H441 cells, 3 h compound incubation, HTRF p-ERK T202/Y204, read-out: H441 p-ERK IC50
[9] = Homo sapiens, NCI-H441, 3D cell proliferation (CellTiter Glo-3D)
[10] = Homo sapiens, ASPC1, 3 h, AsPC-1 cells, 3 h compound incubation, HTRF p-ERK T202/Y204, read-out: AsPC-1 p-ERK IC50
[11] = NCI-H441 cells, 3 h compound incubation, HTRF p-ERK T202/Y204, read-out: H441 p-ERK IC50
[12] = 3D cell proliferation (CellTiter Glo-3D)
[13] = AsPC-1 cells, 3 h compound incubation, HTRF p-ERK T202/Y204, read-out: AsPC-1 p-ERK IC50

Structure (SMILES)	IC50 [2, 6]	IC50 [1, 8]	IC50 (NCI-H441 cells; [9])	IC50 [3, 10]	IC50 [1, 11]	IC50 (NCI-H441 cells; [12])	IC50 [2, 12]	IC50 [3, 13]	IC50 [1, 4]	IC50 (NCI-H441 cells; [5])	IC50 [3, 7]
CCn1c(-c2cc(C#CCN3CCC(O)(c4cccc[n+]4[O-])CC3)cnc2[C@H](C)OC)c2c3cc(ccc31)-c1csc(n1)C[C@H](NC(=O)[C@H]1[C@H](C)[C@@H]1C)C(=O)N1CCC[C@H](N1)C(=O)OCC(C)(C)C2 (atropisomer, axis not shown; (Ra)) [Compound Z1047, 2-(1-(3-(5-((6^3S,4S,Z)-4-((1r,2R,3S)-2,3-dimethylcyclopropane-1-carboxamido)-1^1-ethyl-10,10-dimethyl-5,7-dioxo-6^1,6^2,6^3,6^4,6^5,6^6-hexahydro-1^1H-8-oxa-2(4,2)-thiazola-1(5,3)-indola-6(1,3)-pyridazinacycloundecaphane-1^2-yl)-(Ra)-6-((S)-1-methoxyethyl)pyridin-3-yl)prop-2-yn-1-yl)-4-hydroxypiperidin-4-yl)pyridine-1-oxide formate]	0.37 nM	–	–	–	–	–	–	–	0.22 nM	0.24 nM	0.24 nM
COCCn1c(-c2cc(C#CCN(C)C[Si](C)(C)C)cnc2[C@H](C)OC)c2c3cc(ccc31)-c1csc(n1)C[C@H](NC(=O)[C@H]1[C@@H]3COC[C@@H]31)C(=O)N1CCC[C@H](N1)C(=O)OCC(C)(C)C2 (atropisomer, axis not shown; (Ra)) [Compound Z1091, (1R,5S,6r)-N-((6^3S,4S,Z)-1^1-(2-methoxyethyl)-1^2-(Ra)-(2-((S)-1-methoxyethyl)-5-(3-(methyl((trimethylsilyl)methyl)amino)prop-1-yn-1-yl)pyridin-3-yl)-10,10-dimethyl-5,7-dioxo-6^1,6^2,6^3,6^4,6^5,6^6-hexahydro-1^1H-8-oxa-2(4,2)-thiazola-1(5,3)-indola-6(1,3)-pyridazinacycloundecaphane-4-yl)-3-oxabicyclo[3.1.0]hexane-6-carboxamide]	1.67 nM	–	–	–	–	–	–	–	1.92 nM	2.01 nM	2.34 nM
CCn1c(-c2cc(OCCN3CCOCC34CC4)cnc2[C@H](C)OC)c2c3cc(ccc31)-c1csc(n1)C[C@H](NC(=O)[C@H]1C[C@@H]1C(F)F)C(=O)N1CCC[C@H](N1)C(=O)OCC1(CC1)C2 (relative stereo) [Compound Z557, (1S,2S)—N-((3′S,4′S,Z)—(Ra)-2′-(5-(2-(7-oxa-4-azaspiro[2,5]octan-4-yl)ethoxy)-2-((S)-1-methoxyethyl)pyridin-3-yl)-1′-ethyl-5′,7′-dioxospiro[cyclopropane-1,10′-8-oxa-2(4,2)-thiazola-1(5,3)-indola-6(1,3)-pyridazinacycloundecaphan]-4′-yl)-2-trans-(difluoromethyl)cyclopropane-1-carboxamide]	–	–	–	–	5.56 nM	7.66 nM	16.3 nM	20.7 nM	–	–	–
CCn1c(-c2cc(N3CCN(C)CC3)cnc2[C@H](C)OC)c2c3cc(ccc31)-c1csc(n1)C[C@H](NC(=O)C(C)(C)F)C(=O)N1CCC[C@H](N1)C(=O)OCC(C)(C)C2 (single isomer, unassigned) [Compound Z5]	–	–	–	–	4.24 nM	12.3 nM	19.5 nM	2.81 nM	–	–	–
CCn1c(-c2cc([C@@H]3CCN4CCOC[C@@H]4C3)cnc2[C@H](C)OC)c2c3cc(ccc31)-c1csc(n1)C[C@H](NC(=O)[C@H]1[C@H](C)[C@@H]1C)C(=O)N1CCC[C@H](N1)C(=O)OCC1(CC1)C2 (single isomer, unassigned) [Compound Z77]	17.4 nM	7.48 nM	4.94 nM	13.9 nM	–	–	–	–	–	–	–
CCn1c(-c2cc([C@H]3CCN4CCOC[C@H]4C3)cnc2[C@H](C)OC)c2c3cc(ccc31)-c1csc(n1)C[C@H](NC(=O)[C@H]1[C@H](C)[C@@H]1C)C(=O)N1CCC[C@H](N1)C(=O)OCC1(CC1)C2 (single isomer, unassigned) [Compound Z78]	28.3 nM	9.86 nM	7.54 nM	18.7 nM	–	–	–	–	–	–	–

The next lines start with results.

IC50 [2, 6]	IC50 [1, 8]	IC50 (NCI-H441 cells; [9])	IC50 [3, 10]	IC50 [1, 11]	IC50 (NCI-H441 cells; [12])	IC50 [2, 12]	IC50 [3, 13]	Structure (SMILES)	IC50 [1, 4]	IC50 (NCI-H441 cells; [5])	IC50 [3, 7]
0.94 nM	0.53 nM	1.3 nM	0.82 nM	–	–	–	–	CCn1c(-c2cc(C#CCN3CCC(Nc4ccccc4P(C)(C)=O)CC3)cnc2[C@H](C)OC)c2c3cc(ccc31)-c1csc(n1)C[C@H](NC(=O)[C@H]1[C@H](C)[C@@H]1C)C(=O)N1CCC[C@H](N1)C(=O)OCC(C)(C)C2 (atropisomer, axis not shown; (Ra)) [Compound Z1062, (1r,2R,3S)—N-((6^35,4S,Z)-1^2-(5-(3-(4-((2-(dimethylphosphoryl)phenyl)amino)piperidin-1-yl)prop-1-yn-1-yl)-(Ra)-2-((S)-1-methoxyethyl)pyridin-3-yl)-1^1-ethyl-10,10-dimethyl-5,7-dioxo-6^1,6^2,6^3,6^4,6^5,6^6-hexahydro-1^1H-8-oxa-2(4,2)-thiazola-1(5,3)-indola-6(1,3)-pyridazinacycloundecaphane-4-yl)-2,3-dimethylcyclopropane-1-carboxamide]	–	–	–
0.32 nM	0.27 nM	0.37 nM	0.29 nM	–	–	–	–	CCn1c(-c2cc(OCCN3CCOC4(CC4)C3)cnc2[C@H](C)OC)c2c3cc(ccc31)-c1csc(n1)C[C@H](NC(=O)[C@H]1[C@H](C)[C@@H]1C)C(=O)N1CCC[C@H](N1)C(=O)OCC(C)(C)C2 (atropisomer, axis not shown; (Sa)) [Compound Z551, (1r,2R,3S)—N-((6^3R,4R,Z)—(Sa)-1^2-(5-(2-(4-oxa-7-azaspiro[2,5]octan-7-yl)ethoxy)-2-((S)-1-methoxyethyl)-3-ylpyridin)-1^1-ethyl-10,10-dimethyl-5,7-dioxo-6^1,6^2,6^3,6^4,6^5,6^6-hexahydro-1^1H-8-oxa-2(4,2)-thiazola-1(5,3)-indola-6(1,3)-pyridazinacycloundecaphane-4-yl)-2,3-dimethylcyclopropane-1-carboxamide]	–	–	–
–	–	–	–	11.2 nM	18.4 nM	30.4 nM	13.4 nM	CCn1c(-c2cc(C#CCN3CCC3)cnc2[C@H](C)OC)c2c3cc(ccc31)-c1csc(n1)C[C@H](NC(=O)[C@H]1[C@H](C)[C@@H]1C)C(=O)N1CCC[C@H](N1)C(=O)OCC(C)(C)C2 (atropisomer, axis not shown; (Sa)) [Compound Z555, (1r,2R,3S)—N-((6^3S,4S,Z)—(Sa)-1^2-(5-(3-(azetidin-1-yl)prop-1-yn-1-yl)-2-((S)-1-methoxyethyl)pyridin-3-yl)-1^1-ethyl-10,10-dimethyl-5,7-dioxo-6^1,6^2,6^3,6^4,6^5,6^6-hexahydro-1^1H-8-oxa-2(4,2)-thiazola-1(5,3)-indola-6(1,3)-pyridazinacycloundecaphane-4-yl)-2,3-dimethylcyclopropane-1-carboxamide]	–	–	–
0.79 nM	0.34 nM	0.7 nM	0.68 nM	–	–	–	–	CCn1c(-c2cc(C#CC(C)N3CCC3)cnc2[C@H](C)OC)c2c3cc(ccc31)-c1csc(n1)C[C@H](NC(=O)[C@H]1[C@H](C)[C@@H]1C)C(=O)N1CCC[C@H](N1)C(=O)OCC(C)(C)C2 (atropisomer, axis not shown; (Sa)) [Compound Z613-2, (1r,2R,3S)—N-((6^3S,4S,Z)-12-(5-(3-(azetidin-1-yl)but-1-yn-1-yl)-(Sa)-2-((S)-1-methoxyethyl)pyridin-3-yl)-4′-ethyl-10,10-dimethyl-5,7-dioxo-6^1,6^2,6^3,6^4,6^5,6^6-hexahydro-1^1H-8-oxa-2(4,2)-thiazola-(5,3)-indola-6(1,3)-pyridazinacycloundecaphane-4-yl)-2.3-dimethylcyclopropane-1-carboxamide]	–	–	–
